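Protocol summary: plate cells (96-well), add compound at 5 concentrations, incubate 48 h, interpolate endpoints linearly. Here, GI50 denotes the concentration required for 50% inhibition of growth. TGI denotes the concentration required for complete inhibition of growth.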
Tests used:
Experiment in all cases: inhibition of tumour cell growth, NCI panel, 48 h
NCI-H23 lung = tested on: NCI-H23 lung
DU-145 prostate = tested on: DU-145 prostate
SK-OV-3 ovarian = tested on: SK-OV-3 ovarian
TK-10 renal = tested on: TK-10 renal
LOX IMVI melanoma = tested on: LOX IMVI melanoma
MDA-MB-468 breast = tested on: MDA-MB-468 breast
RXF 393 renal = tested on: RXF 393 renal
SK-MEL-28 melanoma = tested on: SK-MEL-28 melanoma
NCI/ADR-RES ovarian = tested on: NCI/ADR-RES ovarian
SF-539 CNS = tested on: SF-539 CNS
HOP-62 NSCLC = tested on: HOP-62 NSCLC
SK-MEL-5 melanoma = tested on: SK-MEL-5 melanoma
CAKI-1 renal = tested on: CAKI-1 renal
EKVX NSCLC = tested on: EKVX NSCLC
MOLT-4 leukemia = tested on: MOLT-4 leukemia
A498 renal = tested on: A498 renal
HCT-116 colon = tested on: HCT-116 colon
NCI-H522 lung = tested on: NCI-H522 lung
ACHN renal = tested on: ACHN renal
CCRF-CEM leukemia = tested on: CCRF-CEM leukemia
MDA-MB-231 breast = tested on: MDA-MB-231 breast
SW-620 colon = tested on: SW-620 colon
U251 CNS = tested on: U251 CNS
RPMI-8226 leukemia = tested on: RPMI-8226 leukemia
OVCAR-3 ovarian = tested on: OVCAR-3 ovarian
HCT-15 colon = tested on: HCT-15 colon
UACC-62 melanoma = tested on: UACC-62 melanoma
MCF7 breast = tested on: MCF7 breast
OVCAR-4 ovarian = tested on: OVCAR-4 ovarian
SF-268 CNS = tested on: SF-268 CNS
HCC-2998 colon = tested on: HCC-2998 colon
OVCAR-8 ovarian = tested on: OVCAR-8 ovarian
UO-31 renal = tested on: UO-31 renal
SNB-19 CNS = tested on: SNB-19 CNS
PC-3 prostate = tested on: PC-3 prostate
T-47D breast = tested on: T-47D breast
MALME-3M melanoma = tested on: MALME-3M melanoma
SN12C renal = tested on: SN12C renal
HT29 colon = tested on: HT29 colon
SNB-75 CNS = tested on: SNB-75 CNS
NCI-H460 lung = tested on: NCI-H460 lung
A549 NSCLC = tested on: A549 NSCLC
BT-549 breast = tested on: BT-549 breast
SK-MEL-2 melanoma = tested on: SK-MEL-2 melanoma
HL-60(TB) leukemia = tested on: HL-60(TB) leukemia
K-562 leukemia = tested on: K-562 leukemia
SR leukemia = tested on: SR leukemia
OVCAR-5 ovarian = tested on: OVCAR-5 ovarian
HS 578T breast = tested on: HS 578T breast
SF-295 CNS = tested on: SF-295 CNS
NCI-H226 lung = tested on: NCI-H226 lung
UACC-257 melanoma = tested on: UACC-257 melanoma
COLO 205 colon = tested on: COLO 205 colon
M14 melanoma = tested on: M14 melanoma
KM12 colon = tested on: KM12 colon
HOP-92 NSCLC = tested on: HOP-92 NSCLC
MDA-MB-435 = tested on: MDA-MB-435
786-0 renal = tested on: 786-0 renal
IGROV1 ovarian = tested on: IGROV1 ovarian

`Fc1ccc(N2CC(Cn3c(C(F)(F)F)cc4c(Cl)ncnc43)C2)c(F)c1` gave a GI50 (NCI-H23 lung) of 2.65 µM, a TGI (NCI-H23 lung) of 8.34 µM and a GI50 (DU-145 prostate) of 12.6 µM. It also gave a TGI (DU-145 prostate) of 25.8 µM, a GI50 (SK-OV-3 ovarian) of 14.6 µM and a TGI (SK-OV-3 ovarian) of 29.6 µM. For the same molecule, the GI50 (TK-10 renal) was 19.3 µM, the TGI (TK-10 renal) was 50.7 µM and the GI50 (LOX IMVI melanoma) was 1.63 µM. It also gave a TGI (LOX IMVI melanoma) of 2.99 µM, a GI50 (MDA-MB-468 breast) of 1.63 µM and a TGI (MDA-MB-468 breast) of 3.2 µM. For the same molecule, the GI50 (RXF 393 renal) was 2.07 µM, the TGI (RXF 393 renal) was 4.99 µM and the GI50 (SK-MEL-28 melanoma) was 2.08 µM. It also gave a TGI (SK-MEL-28 melanoma) of 4.91 µM, a GI50 (NCI/ADR-RES ovarian) of 10.2 µM and a TGI (NCI/ADR-RES ovarian) of 26.5 µM. It also gave a GI50 (SF-539 CNS) of 13.7 µM, a TGI (SF-539 CNS) of 28.3 µM and a GI50 (HOP-62 NSCLC) of 17.1 µM. The TGI (HOP-62 NSCLC) was 33.8 µM, the GI50 (SK-MEL-5 melanoma) was 10.9 µM and the TGI (SK-MEL-5 melanoma) was 22.9 µM. It also gave a GI50 (CAKI-1 renal) of 11.8 µM, a TGI (CAKI-1 renal) of 24.2 µM and a GI50 (EKVX NSCLC) of 6.54 µM. For the same molecule, the TGI (EKVX NSCLC) was 19.8 µM, the GI50 (MOLT-4 leukemia) was 3.12 µM and the TGI (MOLT-4 leukemia) was 8.97 µM. The GI50 (A498 renal) was 23.3 µM, the TGI (A498 renal) was 74.2 µM and the GI50 (HCT-116 colon) was 1.92 µM. For the same molecule, the TGI (HCT-116 colon) was 3.93 µM, the GI50 (NCI-H522 lung) was 1.82 µM and the TGI (NCI-H522 lung) was 3.97 µM. The GI50 (ACHN renal) was 12.9 µM, the TGI (ACHN renal) was 27.5 µM and the GI50 (CCRF-CEM leukemia) was 10.4 µM. The TGI (CCRF-CEM leukemia) was > 100 µM, the GI50 (MDA-MB-231 breast) was 1.63 µM and the TGI (MDA-MB-231 breast) was 3.09 µM. The GI50 (SW-620 colon) was 1.89 µM, the TGI (SW-620 colon) was 3.85 µM and the GI50 (U251 CNS) was 1.91 µM. The TGI (U251 CNS) was 3.83 µM, the GI50 (RPMI-8226 leukemia) was 23.4 µM and the TGI (RPMI-8226 leukemia) was 64.9 µM. The GI50 (OVCAR-3 ovarian) was 2.55 µM, the TGI (OVCAR-3 ovarian) was 6.42 µM and the GI50 (HCT-15 colon) was 1.79 µM. The TGI (HCT-15 colon) was 3.55 µM, the GI50 (UACC-62 melanoma) was 3.16 µM and the TGI (UACC-62 melanoma) was 13 µM. It also gave a GI50 (MCF7 breast) of 8.16 µM, a TGI (MCF7 breast) of 23.6 µM and a GI50 (OVCAR-4 ovarian) of 12.9 µM. For the same molecule, the TGI (OVCAR-4 ovarian) was 27 µM, the GI50 (SF-268 CNS) was 3.14 µM and the TGI (SF-268 CNS) was 11.2 µM. For the same molecule, the GI50 (HCC-2998 colon) was 1.96 µM, the TGI (HCC-2998 colon) was 3.48 µM and the GI50 (OVCAR-8 ovarian) was 2.15 µM. For the same molecule, the TGI (OVCAR-8 ovarian) was 5.07 µM, the GI50 (UO-31 renal) was 2.68 µM and the TGI (UO-31 renal) was 10.8 µM. The GI50 (SNB-19 CNS) was 15.1 µM, the TGI (SNB-19 CNS) was 28.9 µM and the GI50 (PC-3 prostate) was 3.07 µM. The TGI (PC-3 prostate) was 10.9 µM, the GI50 (T-47D breast) was 13.9 µM and the TGI (T-47D breast) was 66.8 µM. The GI50 (MALME-3M melanoma) was 12.6 µM, the TGI (MALME-3M melanoma) was 25.2 µM and the GI50 (SN12C renal) was 1.95 µM. It also gave a TGI (SN12C renal) of 4.97 µM, a GI50 (HT29 colon) of 3.44 µM and a TGI (HT29 colon) of 16.3 µM. It also gave a GI50 (SNB-75 CNS) of 12.1 µM, a TGI (SNB-75 CNS) of 24.8 µM and a GI50 (NCI-H460 lung) of 3.99 µM. It also gave a TGI (NCI-H460 lung) of 14.3 µM, a GI50 (A549 NSCLC) of 17.3 µM and a TGI (A549 NSCLC) of 35.7 µM. It also gave a GI50 (BT-549 breast) of 10.7 µM, a TGI (BT-549 breast) of 22.9 µM and a GI50 (SK-MEL-2 melanoma) of 15.9 µM. The TGI (SK-MEL-2 melanoma) was 31.2 µM, the GI50 (HL-60(TB) leukemia) was 2.26 µM and the TGI (HL-60(TB) leukemia) was 6.38 µM. It also gave a GI50 (K-562 leukemia) of 2.34 µM, a TGI (K-562 leukemia) of 7.13 µM and a GI50 (SR leukemia) of 2.14 µM. It also gave a TGI (SR leukemia) of 6.92 µM, a GI50 (OVCAR-5 ovarian) of 17.8 µM and a TGI (OVCAR-5 ovarian) of 37.3 µM. The GI50 (HS 578T breast) was 7.06 µM, the TGI (HS 578T breast) was 41.8 µM and the GI50 (SF-295 CNS) was 11.5 µM. It also gave a TGI (SF-295 CNS) of 24.5 µM, a GI50 (NCI-H226 lung) of 14 µM and a TGI (NCI-H226 lung) of 31 µM. The GI50 (UACC-257 melanoma) was 3.1 µM, the TGI (UACC-257 melanoma) was 12 µM and the GI50 (COLO 205 colon) was 15.1 µM. It also gave a TGI (COLO 205 colon) of 32.5 µM, a GI50 (M14 melanoma) of 2.98 µM and a TGI (M14 melanoma) of 10.7 µM. The GI50 (KM12 colon) was 16.1 µM, the TGI (KM12 colon) was 31.2 µM and the GI50 (HOP-92 NSCLC) was 11 µM. It also gave a TGI (HOP-92 NSCLC) of 25.4 µM, a GI50 (MDA-MB-435) of 4.95 µM and a TGI (MDA-MB-435) of 17.6 µM. For the same molecule, the GI50 (786-0 renal) was 14.9 µM, the TGI (786-0 renal) was 29.1 µM and the GI50 (IGROV1 ovarian) was 1.85 µM. For the same molecule, the TGI (IGROV1 ovarian) was 3.54 µM.

Reference: PubChem BioAssay (NCI)
